Measurements from patent publication US20050064021A1, “Medical dressings” (priority 2001, published 2005).

Test system: cells
Assay: cellular adherence to alginate, cell type not stated
Assay type: cell-based
Details: lidocaine present with poloxamer

`CCN(CC)CC(=O)Nc1c(C)cccc1C` [lidocaine] was tested, and the “cellular adherence properties of alginate” value was “reduce the cellular adherence properties of alginate, for example, still further”.
